Measured values from PubChem BioAssay (NCI).
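Cells were grown in 96-well plates and exposed to each compound for 48 hours at five concentrations; endpoints were interpolated linearly between bracketing concentrations, or set to the highest concentration if not reached. TGI denotes the concentration required for complete inhibition of growth.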

What was measured:
Assay in all cases: DTP human tumour cell line panel, 48 h
OVCAR-8 ovarian = tested on: OVCAR-8 ovarian
SK-MEL-2 melanoma = tested on: SK-MEL-2 melanoma
HCC-2998 colon = tested on: HCC-2998 colon
SK-MEL-5 melanoma = tested on: SK-MEL-5 melanoma
SN12C renal = tested on: SN12C renal
T-47D breast = tested on: T-47D breast
K-562 leukemia = tested on: K-562 leukemia
786-0 renal = tested on: 786-0 renal
HCT-116 colon = tested on: HCT-116 colon
HOP-62 NSCLC = tested on: HOP-62 NSCLC
COLO 205 colon = tested on: COLO 205 colon
A498 renal = tested on: A498 renal
OVCAR-5 ovarian = tested on: OVCAR-5 ovarian
HCT-15 colon = tested on: HCT-15 colon
ACHN renal = tested on: ACHN renal
RXF 393 renal = tested on: RXF 393 renal
NCI-H460 lung = tested on: NCI-H460 lung
NCI-H23 lung = tested on: NCI-H23 lung
HT29 colon = tested on: HT29 colon
NCI-H226 lung = tested on: NCI-H226 lung
LOX IMVI melanoma = tested on: LOX IMVI melanoma
U251 CNS = tested on: U251 CNS
HOP-92 NSCLC = tested on: HOP-92 NSCLC
HS 578T breast = tested on: HS 578T breast
OVCAR-3 ovarian = tested on: OVCAR-3 ovarian
SW-620 colon = tested on: SW-620 colon
KM12 colon = tested on: KM12 colon
NCI-H522 lung = tested on: NCI-H522 lung
MDA-MB-435 = tested on: MDA-MB-435
DU-145 prostate = tested on: DU-145 prostate
SNB-19 CNS = tested on: SNB-19 CNS
A549 NSCLC = tested on: A549 NSCLC
CAKI-1 renal = tested on: CAKI-1 renal
TK-10 renal = tested on: TK-10 renal
MOLT-4 leukemia = tested on: MOLT-4 leukemia
UO-31 renal = tested on: UO-31 renal
PC-3 prostate = tested on: PC-3 prostate
MDA-MB-231 breast = tested on: MDA-MB-231 breast
NCI/ADR-RES ovarian = tested on: NCI/ADR-RES ovarian
BT-549 breast = tested on: BT-549 breast
UACC-257 melanoma = tested on: UACC-257 melanoma
CCRF-CEM leukemia = tested on: CCRF-CEM leukemia
UACC-62 melanoma = tested on: UACC-62 melanoma
SK-OV-3 ovarian = tested on: SK-OV-3 ovarian
SF-268 CNS = tested on: SF-268 CNS
SK-MEL-28 melanoma = tested on: SK-MEL-28 melanoma
M14 melanoma = tested on: M14 melanoma
EKVX NSCLC = tested on: EKVX NSCLC
MCF7 breast = tested on: MCF7 breast
SF-295 CNS = tested on: SF-295 CNS
HL-60(TB) leukemia = tested on: HL-60(TB) leukemia
SF-539 CNS = tested on: SF-539 CNS
IGROV1 ovarian = tested on: IGROV1 ovarian
OVCAR-4 ovarian = tested on: OVCAR-4 ovarian

Measured: TGI

CC1=NN(C2=NS(=O)(=O)c3ccccc3N2C)C(=O)C1
> 100 µM: all assays above
